# Source: PubChem BioAssay AID248 (DTP/NCI, 2004)
# Values joined by “and” are separate entries in the source; they are usually repeats but may differ in a detail not shown here. Equal entries are not always repeated. Inconclusive results and toxic doses are left out.
# Test system: L1210 leukemia ip in BDF1 mice, survival T/C
# Assay: NCI In Vivo Anticancer Drug Screen. Data for tumor model L1210 Leukemia (intraperitoneal) in B6D2F1 (BDF1) mice
# Conditions: higher = longer survival
# Summary of the method: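 Each compound was tested against a transplantable tumor grown in mice. The endpoint was survival, with treated animals benchmarked against vehicle controls as a simple ratio.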
# [1] = endpoint: mean survival time, dose: 100.0 mg/kg/injection, schedule: Q01DX001 (ip), vehicle: Klucel (hydroxypropylcellulose) (HPC)
# [2] = endpoint: mean survival time, dose: 200.0 mg/kg/injection, schedule: Q01DX001 (ip), vehicle: Klucel (hydroxypropylcellulose) (HPC)
# [3] = endpoint: mean survival time, dose: 100.0 mg/kg/injection, schedule: Q04DX003 (ip), vehicle: saline
# [4] = endpoint: mean survival time, dose: 200.0 mg/kg/injection, schedule: Q04DX003 (ip), vehicle: saline
# [5] = endpoint: mean survival time, dose: 400.0 mg/kg/injection, schedule: Q04DX003 (ip), vehicle: saline
smiles,measurement,setting,value
Cn1cnc([N+](=O)[O-])c1Sc1nc(N)nc2nc[nH]c12,T/C,"endpoint: mean survival time, dose: 0.16 mg/kg/injection, schedule: Q#A X030 (oral), vehicle: saline",110 % of control
same,T/C,"endpoint: mean survival time, dose: 0.31 mg/kg/injection, schedule: Q#A X030 (oral), vehicle: saline",106 % of control
same,T/C,"endpoint: mean survival time, dose: 0.62 mg/kg/injection, schedule: Q#A X030 (oral), vehicle: saline",108 % of control
same,T/C,"endpoint: mean survival time, dose: 0.9 mg/kg/injection, schedule: Q03DX005 (oral), vehicle: saline",101 % of control
same,T/C,"endpoint: mean survival time, dose: 1.2 mg/kg/injection, schedule: Q01DX006 (iv), vehicle: saline",105 % of control
same,T/C,"endpoint: mean survival time, dose: 1.2 mg/kg/injection, schedule: Q01DX Z (im), vehicle: saline",105 % of control
same,T/C,"endpoint: mean survival time, dose: 1.2 mg/kg/injection, schedule: Q01DX Z (ip), vehicle: saline",168 % of control
same,T/C,"endpoint: mean survival time, dose: 1.2 mg/kg/injection, schedule: Q01DX Z (sc), vehicle: saline",166 % of control
same,T/C,"endpoint: mean survival time, dose: 1.25 mg/kg/injection, schedule: Q01DX010 (ip), vehicle: saline",112 % of control and 120 % of control
same,T/C,"endpoint: mean survival time, dose: 1.25 mg/kg/injection, schedule: Q#A X030 (oral), vehicle: saline",113 % of control
same,T/C,"endpoint: mean survival time, dose: 1.6 mg/kg/injection, schedule: Q01DX001 (oral), vehicle: saline",110 % of control
same,T/C,"endpoint: mean survival time, dose: 1.9 mg/kg/injection, schedule: Q03DX005 (oral), vehicle: saline",106 % of control
same,T/C,"endpoint: mean survival time, dose: 2.1 mg/kg/injection, schedule: Q07DX003 (oral), vehicle: saline",102 % of control
same,T/C,"endpoint: mean survival time, dose: 2.5 mg/kg/injection, schedule: Q01DX006 (iv), vehicle: saline",109 % of control
same,T/C,"endpoint: mean survival time, dose: 2.5 mg/kg/injection, schedule: Q01DX009 (ip), vehicle: saline",151 % of control and 159 % of control
same,T/C,"endpoint: mean survival time, dose: 2.5 mg/kg/injection, schedule: Q01DX010 (ip), vehicle: saline",154 % of control and 155 % of control
same,T/C,"endpoint: mean survival time, dose: 2.5 mg/kg/injection, schedule: Q01DX Z (im), vehicle: saline",100 % of control
same,T/C,"endpoint: mean survival time, dose: 2.5 mg/kg/injection, schedule: Q01DX Z (ip), vehicle: saline",150 % of control
same,T/C,"endpoint: mean survival time, dose: 3.13 mg/kg/injection, schedule: Q01DX001 (oral), vehicle: saline",104 % of control and 108 % of control
same,T/C,"endpoint: mean survival time, dose: 3.8 mg/kg/injection, schedule: Q03DX005 (oral), vehicle: saline",104 % of control
same,T/C,"endpoint: mean survival time, dose: 4.3 mg/kg/injection, schedule: Q07DX003 (oral), vehicle: saline",106 % of control
same,T/C,"endpoint: mean survival time, dose: 5.0 mg/kg/injection, schedule: Q01DX009 (ip), vehicle: saline",156 % of control
same,T/C,"endpoint: mean survival time, dose: 5.0 mg/kg/injection, schedule: Q01DX010 (ip), vehicle: saline",161 % of control and 163 % of control
same,T/C,"endpoint: mean survival time, dose: 5.0 mg/kg/injection, schedule: Q01DX Z (ip), vehicle: saline",166 % of control
same,T/C,"endpoint: mean survival time, dose: 5.0 mg/kg/injection, schedule: Q01DX Z (oral), vehicle: saline",116 % of control
same,T/C,"endpoint: mean survival time, dose: 5.0 mg/kg/injection, schedule: Q01DX Z (sc), vehicle: saline",209 % of control
same,T/C,"endpoint: mean survival time, dose: 6.0 mg/kg/injection, schedule: Q01DX001 (ip), vehicle: saline",109 % of control and 113 % of control
same,T/C,"endpoint: mean survival time, dose: 6.25 mg/kg/injection, schedule: Q01DX001 (oral), vehicle: saline",102 % of control
same,T/C,"endpoint: mean survival time, dose: 7.5 mg/kg/injection, schedule: Q03DX005 (oral), vehicle: saline",112 % of control
same,T/C,"endpoint: mean survival time, dose: 8.7 mg/kg/injection, schedule: Q07DX003 (oral), vehicle: saline",113 % of control
same,T/C,"endpoint: mean survival time, dose: 10.0 mg/kg/injection, schedule: Q01DX010 (ip), vehicle: saline",152 % of control
same,T/C,"endpoint: mean survival time, dose: 10.0 mg/kg/injection, schedule: Q01DX Z (oral), vehicle: saline",123 % of control
same,T/C,"endpoint: mean survival time, dose: 12.5 mg/kg/injection, schedule: Q01DX001 (oral), vehicle: saline",110 % of control
same,T/C,"endpoint: mean survival time, dose: 17.5 mg/kg/injection, schedule: Q07DX003 (oral), vehicle: saline",122 % of control
same,T/C,"endpoint: mean survival time, dose: 20.0 mg/kg/injection, schedule: Q01DX006 (iv), vehicle: saline",153 % of control
same,T/C,"endpoint: mean survival time, dose: 20.0 mg/kg/injection, schedule: Q01DX009 (ip), vehicle: saline",114 % of control and 120 % of control
same,T/C,"endpoint: mean survival time, dose: 22.0 mg/kg/injection, schedule: Q01DX001 (ip), vehicle: carboxymethylcellulose (CMC)",166 % of control
same,T/C,"endpoint: mean survival time, dose: 25.0 mg/kg/injection, schedule: Q01DX001 (ip), vehicle: saline",116 % of control and 239 % of control
same,T/C,"endpoint: mean survival time, dose: 35.0 mg/kg/injection, schedule: Q01DX001 (ip), vehicle: carboxymethylcellulose (CMC)",174 % of control
same,T/C,"endpoint: mean survival time, dose: 40.0 mg/kg/injection, schedule: Q01DX Z (oral), vehicle: saline",174 % of control
same,T/C,"endpoint: mean survival time, dose: 52.0 mg/kg/injection, schedule: Q01DX001 (ip), vehicle: carboxymethylcellulose (CMC)",180 % of control
same,T/C,"endpoint: mean survival time, dose: 78.0 mg/kg/injection, schedule: Q01DX001 (ip), vehicle: carboxymethylcellulose (CMC)",196 % of control
same,T/C,"endpoint: mean survival time, dose: 80.0 mg/kg/injection, schedule: Q01DX Z (oral), vehicle: saline",163 % of control
same,T/C,"endpoint: mean survival time, dose: 100.0 mg/kg/injection, schedule: Q01DX001 (ip), vehicle: saline",200 % of control and 254 % of control
same,T/C,"endpoint: mean survival time, dose: 160.0 mg/kg/injection, schedule: Q01DX Z (im), vehicle: saline",96 % of control
same,T/C,"endpoint: mean survival time, dose: 160.0 mg/kg/injection, schedule: Q01DX Z (oral), vehicle: saline",111 % of control
same,T/C,"endpoint: mean survival time, dose: 320.0 mg/kg/injection, schedule: Q01DX Z (oral), vehicle: saline",91 % of control
same,T/C,"endpoint: mean survival time, dose: 640.0 mg/kg/injection, schedule: Q01DX Z (oral), vehicle: saline",86 % of control
same,T/C,"endpoint: mean survival time, dose: 960.0 mg/kg/injection, schedule: Q03DX005 (oral), vehicle: saline",106 % of control
same,T/C,"endpoint: mean survival time, dose: 1920.0 mg/kg/injection, schedule: Q03DX005 (oral), vehicle: saline",100 % of control
same,T/C,"endpoint: median survival time, dose: 2.5 mg/kg/injection, schedule: Q01DX009 (ip), vehicle: saline",150 % of control
same,T/C,"endpoint: median survival time, dose: 10.0 mg/kg/injection, schedule: Q01DX009 (ip), vehicle: saline",115 % of control
same,T/C,"endpoint: median survival time, dose: 20.0 mg/kg/injection, schedule: Q01DX009 (ip), vehicle: saline",100 % of control and 118 % of control
NS(=O)(=O)c1ccc(NC(=O)Nc2cccc(CNC(=O)Cc3ccc(Cl)cc3C(=O)O)c2)cc1,T/C,"endpoint: mean survival time, dose: 50.0 mg/kg/injection, schedule: Q01DX001 (ip), vehicle: Klucel (hydroxypropylcellulose) (HPC)",104 % of control
same,T/C,[1],109 % of control
same,T/C,[2],90 % of control
CC[N+](C)(CC)CCNC(=O)Nc1ccc(C)c(NC(=O)NCC[N+](C)(CC)CC)c1,T/C,"endpoint: mean survival time, dose: 1.56 mg/kg/injection, schedule: Q01DX009 (ip), vehicle: saline",97 % of control
same,T/C,"endpoint: mean survival time, dose: 3.12 mg/kg/injection, schedule: Q01DX009 (ip), vehicle: saline",95 % of control
same,T/C,"endpoint: mean survival time, dose: 3.12 mg/kg/injection, schedule: Q04DX002 (ip), vehicle: saline",90 % of control
Cc1ccc(-n2nnnc2N)c(C)c1,T/C,[3],94 % of control
same,T/C,[4],91 % of control
same,T/C,[5],94 % of control
O=C1C=CC(CCCCCn2ccc(=O)[nH]c2=O)C(=O)N1 (configuration not stated),T/C,[3],105 % of control
same,T/C,[4],96 % of control
same,T/C,[5],97 % of control
O=C1CCCc2cc3c(cc21)CCCC3,T/C,"endpoint: mean survival time, dose: 100.0 mg/kg/injection, schedule: Q01DX009 (ip), vehicle: Klucel (hydroxypropylcellulose) (HPC)",96 % of control
same,T/C,"endpoint: mean survival time, dose: 100.0 mg/kg/injection, schedule: Q04DX003 (ip), vehicle: Klucel (hydroxypropylcellulose) (HPC)",109 % of control
same,T/C,"endpoint: mean survival time, dose: 200.0 mg/kg/injection, schedule: Q01DX009 (ip), vehicle: Klucel (hydroxypropylcellulose) (HPC)",97 % of control
same,T/C,"endpoint: mean survival time, dose: 200.0 mg/kg/injection, schedule: Q04DX003 (ip), vehicle: Klucel (hydroxypropylcellulose) (HPC)",107 % of control
same,T/C,"endpoint: mean survival time, dose: 400.0 mg/kg/injection, schedule: Q04DX003 (ip), vehicle: Klucel (hydroxypropylcellulose) (HPC)",102 % of control
Cc1ncc2c(=O)n(-c3ccc(C(=O)O)cc3)[nH]c2n1,T/C,"endpoint: mean survival time, dose: 75.0 mg/kg/injection, schedule: Q04DX003 (ip), vehicle: Klucel (hydroxypropylcellulose) (HPC)",103 % of control
same,T/C,[1],94 % of control
same,T/C,"endpoint: mean survival time, dose: 150.0 mg/kg/injection, schedule: Q04DX003 (ip), vehicle: Klucel (hydroxypropylcellulose) (HPC)",106 % of control
same,T/C,[2],97 % of control
same,T/C,"endpoint: mean survival time, dose: 300.0 mg/kg/injection, schedule: Q04DX003 (ip), vehicle: Klucel (hydroxypropylcellulose) (HPC)",90 % of control
same,T/C,"endpoint: mean survival time, dose: 400.0 mg/kg/injection, schedule: Q01DX001 (ip), vehicle: Klucel (hydroxypropylcellulose) (HPC)",110 % of control
O=C1C=C(c2ccccc2)C(O)(c2ccccc2)/C1=C/c1ccccc1 (configuration not stated),T/C,"endpoint: mean survival time, dose: 6.25 mg/kg/injection, schedule: Q04DX002 (ip), vehicle: saline with Tween-80",100 % of control
same,T/C,"endpoint: mean survival time, dose: 12.5 mg/kg/injection, schedule: Q04DX002 (ip), vehicle: saline with Tween-80",92 % of control
same,T/C,"endpoint: mean survival time, dose: 25.0 mg/kg/injection, schedule: Q04DX002 (ip), vehicle: saline with Tween-80",92 % of control
Oc1cccc(Nc2ccccc2)c1,T/C,"endpoint: mean survival time, dose: 100.0 mg/kg/injection, schedule: Q04DX002 (ip), vehicle: Klucel (hydroxypropylcellulose) (HPC)",106 % of control
same,T/C,"endpoint: mean survival time, dose: 200.0 mg/kg/injection, schedule: Q04DX002 (ip), vehicle: Klucel (hydroxypropylcellulose) (HPC)",95 % of control
same,T/C,"endpoint: mean survival time, dose: 400.0 mg/kg/injection, schedule: Q04DX002 (ip), vehicle: Klucel (hydroxypropylcellulose) (HPC)",95 % of control
